Assay results reported in patent US10023615B2, “Efficient transport into white blood cells” (priority 2008, dated 2018).
Entries after “also recorded” stand apart in the source; their conditions may differ. Ends that are not written are not given here.

Key:
[1] = test system: bleomycin induced lung fibrosis; test: Bleomycin (BLM) induced lung fibrosis; type: in vivo, C57BL/6 mice; details: for cell recruitment in bronchoalveolar lavage space: 3 times in 10 days
Text: In order to determine the activity of the exemplary all-D retro-inverso IB(s) peptide XG-102 (SEQ ID NO: 233) in the treatment of Chronic Obstructive Pulmonary Disease (COPD) XG-102 (SEQ ID NO: 233) is used in an animal model of Bleomycin induced acute lung inflammation and fibrosis. The protocol of bleomycin induced inflammation and fibrosis has been described before in the literature. The aim of the Experiment was to investigate the effect of XG-102 (SEQ ID NO: 233) by subcutaneous (s.c.) route on neutrophil recruitment in broncho alveolar lavage (BAL) and lung in bleomycin induced inflammation and fibrosis: • at 1 day after a single bleomycin administration (10 mg/kg) • and at day 10 with the development of fibrosis
1) Method and Experimental Approach • The test compound XG-102 (SEQ ID NO: 233) at two doses and vehicle control were given s.c. with a single intranasal administration of bleomycin and mice were analyzed after 1 and 10 days. The animals used in the model were 10 C57BL/6 mice (8 weeks old) per group. The experimental groups included vehicle, 0.001 mg/kg XG-102 (SEQ ID NO: 233) and 0.1 mg/kg XG-102 (SEQ ID NO: 233), and the treatment consisted of repeated sub-cutaneous administration of XG-102 (SEQ ID NO: 233), prior to bleomycin administration then every 3 days. Acute lung inflammation at 24 h was monitored by BAL lavage, cytology, cell counts, and lung myeloperoxidase activity. The effect of the compound was compared with vehicle controls. Lung fibrosis was assessed histologically using hematoxylin and eosin staining at day 10 after the single dose of bleomycin.
1.1) Bleomycin Administration • Bleomycin sulfate in saline (10 mg/kg body weight) from Bellon Laboratories (Montrouge, France) or saline were given through the airways by nasal instillation in a volume of 40 μL under light ketamine-xylasine anesthesia. […]
1.4) Cell Count and Determination • Total cell count was determined in BAL fluid using a Malassez hemocytometer. […]

[2] = test system: liver, Kupffer cells; test: Immunostaining against XG-102 in the liver after i.v. injection; type: in vivo, rat; details: 1 mg/kg i.v., 24 hours
Text: Revelation was done using DAB substrate.

[3] = test system: db/db mice; test: db/db mice model of type 2 diabetes, chronic treatment; type: in vivo, mouse; details: 10 mg/kg

## dqsrpvqpflnIttprkprpprrrqrrkkrg (DQSRPVQPFLNLTTPRKPRPPRRRQRRKKRG; not fully specified (some residues); printed as dqsrpvqpflnIttprkprpprrrqrrkkrg) [XG-102]
[1]; 0.001 mg/kg s.c.
  cell recruitment in bronchoalveolar lavage space: reduced significantly the lymphocyte recruitment and the number of total cells recruited; also recorded: decreases the Bleomycin-induced later inflammation
[1]; 0.001 mg/kg, day 10
  histology: inflammatory cells accumulation, fibrotic areas, loss of lung architecture: A decrease of these parameters was observed; also recorded: attenuates the Bleomycin-induced fibrosis
[1]; 0.1 mg/kg s.c.
  cell recruitment in bronchoalveolar lavage space: had no effect
[2]
  accumulation in liver: pronounced accumulation of XG-102 in the liver, and especially, in the Kupffer cells
[3]; day 57, 77 and 108
  plasma levels of insulin, MCP-1, IL-6, tPAI-1, TNF: no significant effects
[3]; day 77 and 108
  plasma resistin: significantly higher
[3]; study day 68
  24 hour food and water intake, urine and faeces production (metabolic cages): no significant effects
